Series [1] deals with photosystem 2 photosynthetic electron transport (PET) in spinach chloroplasts. More on the design: method as in doi:10.3139/113.110079. To be noted: literature surfactants; read-out: IC50 related to PET inhibition; cited from earlier work.
Series [2] concerns M. tuberculosis H37Rv. Kind of series: in vitro antimycobacterial activity, microdilution panel method. Format: cell-based, Mycobacterium tuberculosis. To be noted: Mycobacterium tuberculosis, 336 h, Middlebrook 7H9, Alamar Blue after 14 days, read-out: MIC M. tuberculosis.
Series [3] deals with Staphylococcus aureus. Kind of series: in vitro antibacterial activity, microdilution broth method. Format: cell-based. On the procedure: Microdilution broth method. Antibacterial evaluation was performed against bacterial strains from Czech Collection of Microorganisms (Brno, Czech Republic) (Staphylococcus aureus CCM 4516/08, Escherichia coli CCM 4517, Pseudomonas aeruginosa CCM 1961) or clinical isolates from Department of Clinical Microbiology, University Hospital and Faculty of Medicine in Hradec Králové, Charles University in Prague, Czech Republic (Staphylococcus aureus H 5996/08-methicilin resistant (MRSA), Staphylococcus epidermidis H 6966/08, Enterococcus sp. J 14365/08, Klebsiella pneumoniae D 11750/08, Klebsiella pneumoniae J 14368/08-ESBL positive). All strains were subcultured on Mueller-Hinton agar (MHA) (Difco/Becton Dickinson, Detroit, MI, USA) at 35 °C and maintained on the same medium at 4 °C. The compounds were dissolved in DMSO, and the antibacterial activity was determined in Mueller-Hinton liquid broth (Difco/Becton Dickinson), buffered to pH 7.0. Controls consisted of medium and DMSO alone. […] The standards were neomycin, bacitracin, penicillin G, ciprofloxacin and phenoxymethylpenicilin.
(In broth dilution the organism is exposed to a series of concentrations in liquid medium.)

The subject of series [4] is photosystem 2 photosynthetic electron transport (PET) in spinach chloroplasts. Kind of series: inhibition of photosynthetic electron transport (PET) in spinach chloroplasts (Hill reaction, DCPIP). Format: biochemical, Spinacia oleracea L. To be noted: spinach chloroplasts, DCPIP photoreduction; read-out: IC50 (PET-inhibiting activity). The method, then: Chloroplasts were prepared from spinach (Spinacia oleracea L.) according to Masarovicova and Kralova. The inhibition of photosynthetic electron transport (PET) in spinach chloroplasts was determined spectrophotometrically (Genesys 6, Thermo Electron Scientific Instruments, Madison, WI, USA), using an artificial electron acceptor 2,6-dichlorophenol-indophenol (DCPIP) according to Kralova et al., and the rate of photosynthetic electron transport (PET) was monitored as a photoreduction of DCPIP. The measurements were carried out in phosphate buffer (0.02 mol/L, pH 7.2) containing sucrose (0.4 mol/L), MgCl2 (0.005 mol/L) and NaCl (0.015 mol/L). The chlorophyll content was 30 mg/L in these experiments and the samples were irradiated (~100 W/m^2 with 10 cm distance) with a halogen lamp (250 W) using a 4 cm water filter to prevent warming of the samples (suspension temperature 22 °C). The studied compounds were dissolved in DMSO due to their limited water solubility. […] The inhibitory efficiency of the studied compounds was expressed by IC50 values, i.e., by molar concentration of the compounds causing 50% PET inhibition relative to the untreated control.

In series [5] the test system is aromatic amino acids in spinach chloroplasts. Put plainly: fluorescence of aromatic amino acids in spinach chloroplasts. Format: biochemical, Spinacia oleracea L. To be noted: excitation 275 nm, chlorophyll 10 mg/L. On the procedure: The fluorescence emission spectra of aromatic amino acids (AAA) in spinach chloroplasts were recorded on fluorescence spectrophotometer F-2000 (Hitachi, Tokyo, Japan) using excitation wavelength λex = 275 nm for monitoring AAA fluorescence, excitation slit 20 nm and emission slit 10 nm. The samples were kept in the dark for 2 min before measuring. The phosphate buffer used for dilution of the chloroplast suspension was the same as described above. Due to low aqueous solubility the compounds were added to chloroplast suspension in DMSO solution. The DMSO concentration in all samples was the same as in the control (10%). The chlorophyll concentration in chloroplast suspension was 10 mg/L.

Series [6] in a line: determination of lipophilicity by HPLC (log k). To be noted: HPLC capacity factor, C18 column, MeOH 70% / H2O 30%.
From the text: Instrumentation: Agilent Technologies 1200 SL liquid chromatograph with Diode-array Detector SL G1315C (Agilent Technologies Inc., Colorado Springs, CO, USA); pre-column ZORBAX XDB-C18 5 μm, 4 × 4 mm, Part No. 7995118-504 (Agilent Technologies Inc.) and column ZORBAX Eclipse XDB-C18 5 μm, 4.6 × 250 mm, Part No. 7995118-585 (Agilent Technologies Inc.). The separation process was controlled by Agilent ChemStation, version B.04.02 extended by spectral module (Agilent Technologies Inc.). Mobile phase consisted of MeOH (HPLC grade, 70%) and H2O (HPLC-Milli-Q Grade, 30%). Conditions: Flow rate 1.0 mL/min, sample injection volume 20 μL, column temperature 30 °C, detection wavelength 210 nm, monitor wavelength 270 nm. Retention times (tR) were measured in minutes. The dead time of the system (tD) was determined as the retention time of KI methanol solution. Capacity factors k for individual compounds were calculated according to the formula k = (tR − tD)/tD. Log k, calculated from the capacity factor k, is used as the lipophilicity index converted to log scale.
The subject of series [7] is Vero cells. Put plainly: in vitro cytotoxicity assay (MCC). To be noted: highest tested concentration 100 µmol/L. Format: cell-based, African Green Monkey.

The values below come from article PMC6272192, “Synthesis and Biological Evaluation of N-Alkyl-3-(alkylamino)-pyrazine-2-carboxamides” (Molecules, 2015).

Converted amounts (≈) assume the structure as drawn. Like-named read-outs stand apart in the source and are kept apart here.

A word on the IC50: it is the concentration that gives 50% inhibition. As to `CCCCCCCCC[N+](C)(C)CCNC(=O)CCC(=O)NCC[N+](C)(C)CCCCCCCCC` [3,8-diaza-4,7-dioxodecane-1,10-diylbis(nonyldimethyl)ammonium bromide], the IC50 in series [1] is 1740 µM.
What is called MIC is the lowest concentration found to suppress growth. Take `CCCCCCCCNc1nccnc1C(=O)NC` [Compound 16, N-Methyl-3-(octylamino)pyrazine-2-carboxamide]: the results for the MIC in series [2] and in series [3] were 25 µg/mL (≈ 94.6 µM) and 250 µM (≈ 66.1 µg/mL), respectively. In series [4], the IC50 amounted to 64 µM. Also, in series [5], the “slope of dependence of aromatic amino acid fluorescence intensity (% of control) on compound concentration” value is reported as −0.668. This molecule also had a log k in series [6] of 1.359.
Take `CCCCCNC(=O)c1nccnc1NCCCCC` [Compound 27, N-Pentyl-3-(pentylamino)pyrazine-2-carboxamide]: the MIC in series [2] is over 100 µg/mL. The IC50 in series [4] came to 105 µM. Further, the “slope of dependence of aromatic amino acid fluorescence intensity (% of control) on compound concentration” value in series [5] is −0.211. Moreover, the log k in series [6] is recorded as 1.557.
On to `CCCCCCNC(=O)c1nccnc1NCCCCCC` [Compound 28, N-Hexyl-3-(hexylamino)pyrazine-2-carboxamide], for which the minimal inhibitory concentration (MIC) in series [2] was over 100 µg/mL. Moreover, the “minimum compound concentration (MCC) causing microscopically detectable alteration of normal cell morphology” value in series [7] was over 4 µmol/L. In series [4], the IC50 amounted to 272 µM. In series [6], this molecule returned a log k of 2.041.
The matching figures for `CCCCCCCCNC(=O)c1nccnc1NCCCCCCCC` [Compound 30, N-Octyl-3-(octylamino)pyrazine-2-carboxamide]: over 100 µg/mL, 100 µmol/L, 752 µM and 2.981.
For `CN(C)CCNC(=O)C(=O)NCCN(C)C` [N,N'-bis(2-dimethylaminoethyl)ethanediamide], the IC50 in series [1] was 4000 µM.
